These results are taken from patent US9428477B2, “Trans-2-decenoic acid derivative and drug containing same” (NIPPON ZOKI PHARMACEUTICAL CO., LTD., priority 2012, dated 2016).

The test system of data set [1] is rats with paclitaxel-induced peripheral nerve disorder. The data set is described as follows: Rat peripheral nerve disorder induced by paclitaxel, von Frey test. Particulars: ip, test drug intraperitoneally, single dose, higher of values 1 and 5 hours after administration, mechanical stimulus of right hind limb, normal threshold 15, read-out: Recovery Rate of 50% Reaction Threshold Value. Format: in vivo. The protocol: The effects of the compounds of the present invention were evaluated for a peripheral nerve disorder which is a side effect induced by the administration of an anti-cancer agent paclitaxel, such as hyperesthesia including allodynia induced by mechanical stimuli, which is a severe pain induced by such tactile stimuli which usually cause no pains. The compound of the present invention was intraperitoneally administered to rats as a test drug to conduct a von Frey test.
Male SD rats of six weeks age (six rats per group) were used as experimental animals, and paclitaxel (2 mg/kg) was intraperitoneally administered every other day for four times in total to prepare rats with paclitaxel-induced peripheral nerve disorder. During the period of 18 to 25 days or during the period of 20 to 27 days after the initiation of paclitaxel administration, the test drug was intraperitoneally administered in a single dose of […], and the following von Frey test was conducted.
The rats of the above (1) were placed in a transparent acrylic cage with a wire-meshed floor and habituated for about three minutes, and the 50% reaction threshold values to the mechanical stimulus of right hind limb were measured before administration of the test drug and after 1 and 5 hours from the initiation of the administration.
The measurement was conducted using von Frey filaments (manufactured by North Coast Medical Inc.) in accordance with the methods of Chaplan, et al. (Journal of Neuroscience Methods, 53(1), 55-63, 1994) and Dixon, et al. (Annual Review of Pharmacology and Toxicology, 20, 441-462, 1980). […] The case where the rat escaped at the instance of removing the filament was also called positive. When the positive reaction was found, stimulus was applied similarly with a filament of one rank weaker, and in the absence of the reaction, stimulus was similarly applied with a filament of one rank stronger, and a point where the reaction changed from negative to positive or from positive to negative was called the first two reactions. Subsequently, stimuli were applied for continuously four times by the same up-down method. A 50% reaction threshold value to the mechanical stimulus was measured using the reaction to the six stimuli in total and then (mean value)±(standard error) for each group was calculated. Incidentally, when stimulus reached to a load of 15.0 g without positive reaction, or when positive reaction continued to a load of 0.4 g, 15.0 g or 0.25 g was adopted as each of 50% reaction threshold values. With regard to the higher 50% reaction threshold value between the 50% threshold values after 1 hour and 5 hours from administration of a test drug, a recovery rate (%) of the 50% reaction threshold value was calculated by the following expression in which 15 was taken as a normal threshold value.
Recovery rate (%) of 50% reaction threshold value=[(50% reaction threshold value after 1 hour or 5 hours from administration of test drug)−(50% reaction threshold value before administration of test drug)]/[(Normal threshold value)−(50% reaction threshold value before administration of test drug)]×100

In data set [2] the test system is MAP kinase (ERK1/2). Put plainly: Activation (phosphorylation) of MAP kinase under mild stress loads, hippocampus of chronic mild stress-induced depression model mice. It is filed as in vivo. Particulars: normal control 1.26±0.11, stress-loaded control 0.56±0.04. As for the experimental part: As to the compounds of the present invention, the activation level of the MAP kinase (ERK1/2) was measured using chronic mild stress-induced depression model mice in the following manner. • (1) Preparation of Chronic Mild Stress-Induced Depression Model Mice and Administration of Test Drug
(§1) Female ddY mice of seven weeks age (n=8 to 12) were subjected to the following procedures: (A) The mice were subjected to forced swimming for 15 minutes, and then to normal breeding for two days. (B) The mice were subjected to breeding in an inclined cage for two days, and then to normal breeding for one day. (C) The mice were subjected to breeding for one day in a cage of which floor mat was made wet and then to normal breeding for one day. (D) The mice were subjected to breeding for one day with a cage rotating at a rate of 180 rotations/minute, and then to normal breeding for one day. Further, after one cycle of (A) to (D) was carried out, (B) to (D) were repeated for two cycles. As such, stress was applied over three weeks in total to prepare chronic mild stress-induced depression model mice. […]
Each of the MAP kinase (MAPK) and the phosphorylated MAP kinase (pMAPK) was subjected to immunoblot analysis, and 2 μg or 5 μg each of tissue-extracted proteins was subjected to electrophoresis. […] The staining intensity of each band was quantified, and a ratio of pMAPK to MAPK was obtained (n=4 to 7). […]

For data set [3], the system named is transcription factor CREB. Put plainly: Activation (phosphorylation) of CREB under mild stress loads, chronic mild stress-induced depression model mice. Format: in vivo. The following applies: normal control 0.95±0.09, stress-loaded control 0.50±0.07.
The test system of data set [4] is chronic mild stress-induced depression model mice. Put plainly: Tail suspension test, suppressive effects of depression symptoms accompanying mild stress loads. Format: in vivo. The following applies: normal control 73.16±9.20, stress-loaded control 157.01±11.97. The protocol: as §1
The compounds of the present invention were administered as a test drug to the chronic mild stress-induced depression model mice of Test Example 3(1) mentioned above, and the model mice were then subjected to tail suspension test to evaluate suppressive effects of depression symptoms. […] The observations were made for 6 minutes, and the length of the immobility time, serving as an index of depression symptoms, was measured. […]

For data set [5] the test system is unchanged. The data set is described as follows: Light-dark test, suppressive effects of anxiety symptoms accompanying mild stress loads. Format: in vivo. The following applies: normal control 110.74±5.29, stress-loaded control 74.72±4.09. The protocol:
as §1, with “cycles.” for “cycles. As such, stress was applied over three weeks in total to prepare chronic mild stress-induced depression model mice.”
The compounds of the present invention were administered as a test drug to the chronic mild stress-induced depression model mice of Test Example 3(1) mentioned above, and the model mice were then subjected to light-dark test to evaluate suppressive effects of anxiety symptoms. Specifically, a wooden rectangular apparatus composed of a light chamber and a dark chamber having a height of 50 cm, a length of 50 cm, a width of 25 cm was used, a mouse was placed in a dark chamber and allowed to freely search, and then the number of times invading into a light chamber, and the time staying in the light chamber were recorded for 5 minutes. […]

[6] abbreviates: 1,000 μg/kg orally once every day for three weeks.
The mark [7] stands for this setting: 500 μg/kg orally once every day for three weeks.

The melting point is the temperature, or range, at which the solid turns liquid. `CCCCCCC/C=C/C(=O)N1CCC(C(=O)O)CC1` [Compound 10, 1-((E)-2-Decenoyl)piperidine-4-carboxylic acid] had a melting point of 88 to 89 °C. Besides, in data set [1], the change in vivo at 0.3 mg/kg is 44.6%. Also, the “ratio of pMAPK to MAPK” value in data set [2] (setting [6]) was determined as 1.00±0.04. In addition, the “ratio of pCREB to CREB” value in data set [3] (setting [6]) was 0.94±0.10. The immobility time in data set [4] (6 minutes, 1,000 μg/kg) was found to be 96.03 ± 25.24 s. Moreover, in data set [5] (5 minutes, 1,000 μg/kg), the “staying time in the light chamber” value is 107.05 ± 8.29 s.

As to `CCCCCCC/C=C/C(=O)N1CCC(N(C)C)CC1` [Compound 12, 1-((E)-2-decenoyl)-4-dimethylaminopiperidine], in data set [1], the change in vivo at 0.3 mg/kg was found to be 49.7%. Moreover, the “ratio of pMAPK to MAPK” value in data set [2] (setting [7]) is recorded as 1.09±0.04. In addition, the “ratio of pCREB to CREB” value in data set [3] (setting [7]) is given as 1.08±0.14. In addition, the immobility time in data set [4] (6 minutes, 500 μg/kg) amounted to 69.26 ± 16.41 s. Further, the “staying time in the light chamber” value in data set [5] (5 minutes, 500 μg/kg) came out at 108.70 ± 12.06 s.
